Reference: patent US20230183218A1, “CONDENSED SUBSTITUTED HYDROPYRROLES AS ANTAGONISTS OF THE MUSCARINIC ACETYLCHOLINE RECEPTOR M4” (Vanderbilt University, priority 2020, published 2023)
pIC50: −log10 of the molar value.

Legend:
[1] = molecular target: T1, Human M4 (Homo sapiens, UniProt P08173); experiment: mAChR M4 cell-based functional assay (calcium flux, antagonist mode vs EC80 acetylcholine), human M4/Gqi5/CHO-K1 cells; details: for remaining activity at 30 µM: CHO-K1, % ACh maximum at 30 μM, human M4, read-out: Human M4 Emin (%); for pIC50: decrease of response elicited by EC80 acetylcholine, human M4/Gqi5 CHO-K1 cells
T1 construct: expressed in transfected cells; host or cells: CHO-K1 (ATCC), stably co-expressing chimeric G protein Gqi5
T1 sequence (P08173 1-479): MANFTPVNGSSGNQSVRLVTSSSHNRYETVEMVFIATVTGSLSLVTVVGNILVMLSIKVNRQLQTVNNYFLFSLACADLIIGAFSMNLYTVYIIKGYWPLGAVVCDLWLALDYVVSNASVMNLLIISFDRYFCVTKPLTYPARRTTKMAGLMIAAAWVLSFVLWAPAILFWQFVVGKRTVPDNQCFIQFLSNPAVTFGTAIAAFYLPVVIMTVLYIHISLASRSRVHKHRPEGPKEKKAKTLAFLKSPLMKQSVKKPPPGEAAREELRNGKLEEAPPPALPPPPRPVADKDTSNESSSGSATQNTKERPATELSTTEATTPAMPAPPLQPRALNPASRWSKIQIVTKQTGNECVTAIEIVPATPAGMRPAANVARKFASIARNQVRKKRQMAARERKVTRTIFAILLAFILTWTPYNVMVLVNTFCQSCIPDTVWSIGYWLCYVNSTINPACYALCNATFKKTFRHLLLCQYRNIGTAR
Summary of the method: (§1)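 CHO-K1 cells stably expressing human or rat M4 with Gqi5, Fluo-4 loaded; calcium measured by fluorescence ratio on FDSS. Compound added, then EC20 acetylcholine at 143 s and EC80 at 268 s; IC50 from decrease of EC80 response, four-parameter logistic fit.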

[2] = molecular target: T2, Rat M4 (Rattus norvegicus, UniProt P08485); experiment: mAChR M4 cell-based functional assay (calcium flux, antagonist mode vs EC80 acetylcholine), rat M4/Gqi5/CHO-K1 cells; details: for remaining activity at 30 µM: CHO-K1, % ACh maximum at 30 μM, rat M4, read-out: Rat M4 Emin (%); for pIC50: decrease of response elicited by EC80 acetylcholine, rat M4/Gqi5 CHO-K1 cells
T2 construct: expressed in transfected cells; host or cells: CHO-K1 (ATCC), stably co-expressing chimeric G protein Gqi5
T2 sequence (P08485 1-478): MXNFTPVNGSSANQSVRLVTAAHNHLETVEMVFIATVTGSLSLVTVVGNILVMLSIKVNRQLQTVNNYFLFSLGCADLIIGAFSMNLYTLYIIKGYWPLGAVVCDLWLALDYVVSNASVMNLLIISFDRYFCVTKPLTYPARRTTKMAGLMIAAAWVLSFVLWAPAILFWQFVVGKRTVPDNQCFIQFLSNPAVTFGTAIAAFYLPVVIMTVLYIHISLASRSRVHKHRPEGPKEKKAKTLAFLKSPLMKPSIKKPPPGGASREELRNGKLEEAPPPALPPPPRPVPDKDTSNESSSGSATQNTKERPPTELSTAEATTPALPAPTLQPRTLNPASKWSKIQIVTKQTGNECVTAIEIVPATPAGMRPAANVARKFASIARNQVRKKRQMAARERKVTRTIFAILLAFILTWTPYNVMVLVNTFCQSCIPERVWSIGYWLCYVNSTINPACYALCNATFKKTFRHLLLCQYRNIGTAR
Summary of the method: as §1

Row | SMILES | remaining activity at 30 µM [1] | pIC50 [1] | remaining activity at 30 µM [2] | pIC50 [2]
1 | Cc1cccnc1CN1C[C@H]2C[C@H](Nc3ccc(S(=O)(=O)C4CCCCC4)nn3)C[C@H]2C1 [compound 43, (3aR,5s,6aS)-N-(6-(cyclohexylsulfonyl)pyridazin-3-yl)-2-((3-methylpyridin-2-yl)methyl)octahydrocyclopenta[c]pyrrol-5-amine] | 5% | 7.12 | 11% | 5.90
2 | Cc1cc2c(cc1CN1C[C@H]3C[C@H](Nc4ccc(S(=O)(=O)C5CCCCC5)nn4)C[C@H]3C1)OCO2 [compound 44, (3aR,5s,6aS)-N-(6-(cyclohexylsulfonyl)pyridazin-3-yl)-2-((6-methylbenzo[d][1,3]dioxol-5-yl)methyl)octahydrocyclopenta[c]pyrrol-5-amine] | 3% | 6.14 | 6% | 5.69
3 | Cc1cc(Br)cnc1CN1C[C@H]2C[C@H](Nc3ccc(S(=O)(=O)C4CCCCC4)nn3)C[C@H]2C1 [compound 45, (3aR,5s,6aS)-2-((5-bromo-3-methylpyridin-2-yl)methyl)-N-(6-(cyclohexylsulfonyl)pyridazin-3-yl)octahydrocyclopenta[c]pyrrol-5-amine] | 4% | 7.69 | 3% | 6.53
4 | O=S(=O)(c1ccc(N[C@H]2C[C@@H]3CN(CC4(O)CCOCC4)C[C@@H]3C2)nn1)C1CCCCC1 [compound 46, 4-(((3aR,5s,6aS)-5-((6-(cyclohexylsulfonyl)pyridazin-3-yl)amino)hexahydrocyclopenta[c]pyrrol-2(1H)-yl)methyl)tetrahydro-2H-pyran-4-ol] | 9% | 5.91 | 27% | < 5.00
5 | O=S(=O)(c1ccc(N[C@H]2C[C@@H]3CN(Cc4ccc5[nH]ccc5c4)C[C@@H]3C2)nn1)C1CCCCC1 [compound 47, (3aR,5s,6aS)-2-((1H-indol-5-yl)methyl)-N-(6-(cyclohexylsulfonyl)pyridazin-3-yl)octahydrocyclopenta[c]pyrrol-5-amine] | 4% | 6.94 | 9% | 5.80
6 | O=S(=O)(c1ccc(N[C@H]2C[C@@H]3CN(Cc4ccc5cc[nH]c5c4)C[C@@H]3C2)nn1)C1CCCCC1 [compound 48, (3aR,5s,6aS)-2-((1H-indol-6-yl)methyl)-N-(6-(cyclohexylsulfonyl)pyridazin-3-yl)octahydrocyclopenta[c]pyrrol-5-amine] | 3% | 6.74 | 9% | 5.34
7 | CC(C)(C)CCN1C[C@H]2C[C@H](Nc3ccc(S(=O)(=O)C4CCCCC4)nn3)C[C@H]2C1 [compound 49, (3aR,5s,6aS)-N-(6-(cyclohexylsulfonyl)pyridazin-3-yl)-2-(3,3-dimethylbutyl)octahydrocyclopenta[c]pyrrol-5-amine] | 3% | 8.24 | 4% | 7.20
8 | CC(C)(C)CCN1C[C@H]2C[C@H](Nc3ccc(S(=O)(=O)c4ccccc4)nn3)C[C@H]2C1 [compound 50, (3aR, 5s,6aS)-2-(3,3-dimethylbutyl)-N-(6-(phenylsulfonyl)pyridazin-3-yl)octahydrocyclopenta[c]pyrrol-5-amine] | 3% | 7.74 | 4% | 6.89
9 | CC1(C)CC(N2C[C@H]3C[C@H](Nc4ccc(Cl)nn4)C[C@H]3C2)CCO1 (stereo partly drawn) [compound 51, (3aR,5s,6aS)-N-(6-chloropyridazin-3-yl)-2-(2,2-dimethyltetrahydro-2H-pyran-4-yl)octahydrocyclopenta[c]pyrrol-5-amine] | 9% | 5.07 | 38% | < 5.00
10 | CC1(C)CC(N2C[C@H]3C[C@H](Nc4ccc(-c5ccccc5F)nn4)C[C@H]3C2)CCO1 (stereo partly drawn) [compound 52, (3aR,5s,6aS)-2-(2,2-dimethyltetrahydro-2H-pyran-4-yl)-N-(6-(2-fluorophenyl)pyridazin-3-yl)octahydrocyclopenta[c]pyrrol-5-amine] | 3% | 7.92 | 6% | 6.11
11 | CC1(C)CC(N2C[C@H]3C[C@H](Nc4ccc(-c5cccc(F)c5)nn4)C[C@H]3C2)CCO1 (stereo partly drawn) [compound 53, (3aR,5s,6aS)-2-(2,2-dimethyltetrahydro-2H-pyran-4-yl)-N-(6-(3-fluorophenyl)pyridazin-3-yl)octahydrocyclopenta[c]pyrrol-5-amine] | 3% | 8.03 | 5% | 6.53
12 | CC1(C)CC(N2C[C@H]3C[C@H](Nc4ccc(-c5ccc(F)cc5)nn4)C[C@H]3C2)CCO1 (stereo partly drawn) [compound 54, (3aR,5s,6aS)-2-(2,2-dimethyltetrahydro-2H-pyran-4-yl)-N-(6-(4-fluorophenyl)pyridazin-3-yl)octahydrocyclopenta[c]pyrrol-5-amine] | 3% | 7.48 | 5% | 6.27
13 | CC1(C)CC(N2C[C@H]3C[C@H](Nc4ccc(-c5cc(F)ccc5F)nn4)C[C@H]3C2)CCO1 (stereo partly drawn) [compound 55, (3aR,5s,6aS)-N-(6-(2,5-difluorophenyl)pyridazin-3-yl)-2-(2,2-dimethyltetrahydro-2H-pyran-4-yl)octahydrocyclopenta[c]pyrrol-5-amine] | 3% | 7.87 | 5% | 6.37
14 | CC1(C)CC(N2C[C@H]3C[C@H](Nc4ccc(-c5cccnc5)nn4)C[C@H]3C2)CCO1 (stereo partly drawn) [compound 56, (3aR,5s,6aS)-2-(2,2-dimethyltetrahydro-2H-pyran-4-yl)-N-(6-(pyridin-3-yl)pyridazin-3-yl)octahydrocyclopenta[c]pyrrol-5-amine] | 4% | 7.42 | 14% | 5.14
15 | Cc1cnn(C)c1-c1ccc(N[C@H]2C[C@@H]3CN(C4CCOC(C)(C)C4)C[C@@H]3C2)nn1 (stereo partly drawn) [compound 57, (3aR,5s,6aS)-N-(6-(1,4-dimethyl-1H-pyrazol-5-yl)pyridazin-3-yl)-2-(2,2-dimethyltetrahydro-2H-pyran-4-yl)octahydrocyclopenta[c]pyrrol-5-amine] | 2% | 7.54 | 9% | 5.69
16 | CC1(C)CC(N2C[C@H]3C[C@H](Nc4ccc(N5CCC(F)(F)CC5)nn4)C[C@H]3C2)CCO1 (stereo partly drawn) [compound 58, (3aR,5s,6aS)-N-(6-(4,4-difluoropiperidin-1-yl)pyridazin-3-yl)-2-(2,2-dimethyltetrahydro-2H-pyran-4-yl)octahydrocyclopenta[c]pyrrol-5-amine] | 3% | 7.53 | 6% | 6.30
17 | CC(=O)Nc1ccc(-c2ccc(N[C@H]3C[C@@H]4CN(C5CCOC(C)(C)C5)C[C@@H]4C3)nn2)cn1 (stereo partly drawn) [compound 59, N-(5-(6-(((3aR,5s,6aS)-2-(2,2-dimethyltetrahydro-2H-pyran-4-yl)octahydrocyclopenta[c]pyrrol-5-yl)amino)pyridazin-3-yl)pyridin-2-yl)acetamide] | 4% | 7.12 | 6% | 6.50
18 | CC1(C)CC(N2C[C@H]3C[C@H](Nc4ccc(N5CCOCC5)nn4)C[C@H]3C2)CCO1 (stereo partly drawn) [compound 60, (3aR,5s,6aS)-2-(2,2-dimethyltetrahydro-2H-pyran-4-yl)-N-(6-morpholinopyridazin-3-yl)octahydrocyclopenta[c]pyrrol-5-amine] | 5% | 7.31 | 14% | 5.29
